Results taken from PubChem BioAssay AID330 (DTP/NCI, 2004).
Several values for one entry are separate records, joined by “and”; a condition that tells them apart may be missing. Equal entries are not always repeated. Toxic doses and inconclusive results are not listed. Rule for the calls: active = survival T/C of 150% or more; inactive = T/C below 125% in these data.

Tested on: P388 leukemia ip, CD2F1 mice, survival T/C
Assay: NCI In Vivo Anticancer Drug Screen. Data for tumor model P388 Leukemia (intraperitoneal) in CD2F1 (CDF1) mice
Conditions: endpoint: median survival time, higher = longer survival
Outline: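 Mice carrying the transplanted tumor received test compound or vehicle. Survival was recorded in each group, and the value is the treated-group measurement divided by that of the vehicle-treated control group.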

[1] = dose: 25.0 mg/kg/injection, schedule: Q01DX005 (ip), vehicle: Klucel (hydroxypropylcellulose) (HPC)
[2] = dose: 50.0 mg/kg/injection, schedule: Q01DX005 (ip), vehicle: Klucel (hydroxypropylcellulose) (HPC)
[3] = dose: 50.0 mg/kg/injection, schedule: Q01DX005 (ip), vehicle: saline with Tween-80
[4] = dose: 100.0 mg/kg/injection, schedule: Q01DX005 (ip), vehicle: Klucel (hydroxypropylcellulose) (HPC)
[5] = dose: 100.0 mg/kg/injection, schedule: Q01DX005 (ip), vehicle: saline with Tween-80
[6] = dose: 200.0 mg/kg/injection, schedule: Q01DX005 (ip), vehicle: saline with Tween-80
[7] = dose: 50.0 mg/kg/injection, schedule: Q01DX009 (ip), vehicle: saline with Tween-80
[8] = dose: 60.0 mg/kg/injection, schedule: Q01DX005 (ip), vehicle: saline with Tween-80
[9] = dose: 120.0 mg/kg/injection, schedule: Q01DX005 (ip), vehicle: saline with Tween-80
[10] = dose: 240.0 mg/kg/injection, schedule: Q01DX005 (ip), vehicle: saline with Tween-80
[11] = dose: 50.0 mg/kg/injection, schedule: Q01DX009 (ip), vehicle: saline
[12] = dose: 100.0 mg/kg/injection, schedule: Q01DX009 (ip), vehicle: saline
[13] = dose: 200.0 mg/kg/injection, schedule: Q01DX005 (ip), vehicle: Klucel (hydroxypropylcellulose) (HPC)
[14] = dose: 100.0 mg/kg/injection, schedule: Q01DX009 (ip), vehicle: saline with Tween-80
[15] = dose: 200.0 mg/kg/injection, schedule: Q01DX009 (ip), vehicle: saline with Tween-80
[16] = dose: 50.0 mg/kg/injection, schedule: Q01DX009 (ip), vehicle: Klucel (hydroxypropylcellulose) (HPC)
[17] = dose: 100.0 mg/kg/injection, schedule: Q01DX009 (ip), vehicle: Klucel (hydroxypropylcellulose) (HPC)
[18] = dose: 200.0 mg/kg/injection, schedule: Q01DX009 (ip), vehicle: Klucel (hydroxypropylcellulose) (HPC)

Measured: T/C

C=C1C2CCC3C4(C)CCCC(C)(C(=O)O)C4CCC3(C2)C1OC(=O)/C(C)=C/C (stereo unspecified)
inactive: dose: 12.5 mg/kg/injection, schedule: Q01DX005 (ip), vehicle: Klucel (hydroxypropylcellulose) (HPC) 102 % of control | [1] 96 % of control | [2] 90 % of control | [3] 99 % of control | [4] 87 % of control | [5] 95 % of control | [6] 95 % of control | dose: 400.0 mg/kg/injection, schedule: Q01DX005 (ip), vehicle: saline with Tween-80 95 % of control

O=[N+]([O-])c1c(Br)sc(Br)c1[N+](=O)[O-]
inactive: dose: 12.5 mg/kg/injection, schedule: Q01DX009 (ip), vehicle: saline with Tween-80 104 % of control | dose: 25.0 mg/kg/injection, schedule: Q01DX009 (ip), vehicle: saline with Tween-80 95 % of control | [7] 95 % of control

CN1NC(c2ccccc2)=NN=C1c1ccccc1
inactive: [8] 104 % of control | [9] 102 % of control | [10] 105 % of control

Clc1ccc(CCNCc2ccc(Cl)cc2)cc1
inactive: dose: 12.5 mg/kg/injection, schedule: Q01DX005 (ip), vehicle: saline with Tween-80 87 % of control | dose: 25.0 mg/kg/injection, schedule: Q01DX005 (ip), vehicle: saline with Tween-80 97 % of control | [3] 106 % of control and 97 % of control

C=C1C(=O)OC2CC3(C)C(CCC(C)=O)C3CC12 (stereo unspecified)
inactive: [11] 96 % of control | [12] 94 % of control | dose: 200.0 mg/kg/injection, schedule: Q01DX009 (ip), vehicle: saline 98 % of control

O=C(Cc1cccc2c(=O)cc(-c3ccccc3)oc12)OCCO
inactive: [1] 100 % of control | [2] 103 % of control and 91 % of control | [4] 100 % of control and 110 % of control | [13] 120 % of control

Clc1ccc2c(Cl)ncnc2c1
inactive: [7] 104 % of control | [14] 100 % of control | [15] 90 % of control

CC1=Nc2ccccc2SC2(C1)C(C1COC(C)(C)O1)OC1OC(C)(C)OC12 (stereo unspecified)
inactive: [3] 93 % of control | [5] 94 % of control | [6] 92 % of control

CS(=O)(=O)Oc1ccc([N+](=O)[O-])cc1
inactive: [16] 98 % of control | [17] 107 % of control | [18] 114 % of control

CCOc1ccc(C(CC)c2cc3c(cc2OCC)OCO3)cc1 (stereo unspecified)
inactive: [8] 100 % of control | [9] 111 % of control | [10] 110 % of control

Cn1c(/C=C/CO)c(CO)c2c1C(=O)C=C(N1CC1)C2=O
inactive: dose: 1.5 mg/kg/injection, schedule: Q01DX005 (ip), vehicle: saline 106 % of control | dose: 3.0 mg/kg/injection, schedule: Q01DX005 (ip), vehicle: saline 94 % of control

COc1cc(/C=C2\C(=O)C3CCN2CC3)cc(OC)c1OC
inactive: [16] 96 % of control | [17] 93 % of control | [18] 114 % of control

O=c1oc(-c2cccc(-c3nc4sc5c(c4c(=O)o3)CCCC5)c2)nc2sc3c(c12)CCCC3
inactive: dose: 100.0 mg/kg/injection, schedule: Q01DX001 (ip), vehicle: Klucel (hydroxypropylcellulose) (HPC) 93 % of control | dose: 200.0 mg/kg/injection, schedule: Q01DX001 (ip), vehicle: Klucel (hydroxypropylcellulose) (HPC) 91 % of control | dose: 400.0 mg/kg/injection, schedule: Q01DX001 (ip), vehicle: Klucel (hydroxypropylcellulose) (HPC) 89 % of control

O=C1/C(=C/c2ccccc2)CCCC12C(c1ccccc1)N2Cc1ccccc1 (stereo unspecified)
inactive: dose: 60.0 mg/kg/injection, schedule: Q01DX005 (ip), vehicle: Klucel (hydroxypropylcellulose) (HPC) 91 % of control | dose: 120.0 mg/kg/injection, schedule: Q01DX005 (ip), vehicle: Klucel (hydroxypropylcellulose) (HPC) 90 % of control | dose: 240.0 mg/kg/injection, schedule: Q01DX005 (ip), vehicle: Klucel (hydroxypropylcellulose) (HPC) 88 % of control

COC(=O)/C=C/C=C/c1ccco1
inactive: [7] 99 % of control | [14] 87 % of control | [15] 89 % of control

c1ccc2c(c1)ccc1c[n+]3ccccc3cc12
inactive: dose: 0.25 mg/kg/injection, schedule: Q01DX009 (ip), vehicle: saline 100 % of control | dose: 0.5 mg/kg/injection, schedule: Q01DX009 (ip), vehicle: saline 104 % of control | dose: 1.0 mg/kg/injection, schedule: Q01DX009 (ip), vehicle: saline 100 % of control | dose: 1.25 mg/kg/injection, schedule: Q04DX003 (ip), vehicle: other 100 % of control | dose: 2.5 mg/kg/injection, schedule: Q04DX003 (ip), vehicle: other 107 % of control

COC(=O)c1ccccc1NC(c1ccccn1)c1ccc2cccnc2c1O (stereo unspecified)
inactive: dose: 50.0 mg/kg/injection, schedule: Q01DX009 (ip), vehicle: DMSO 111 % of control | [16] 109 % of control | dose: 100.0 mg/kg/injection, schedule: Q01DX009 (ip), vehicle: DMSO 116 % of control | [17] 94 % of control | [18] 106 % of control | dose: 400.0 mg/kg/injection, schedule: Q01DX009 (ip), vehicle: Klucel (hydroxypropylcellulose) (HPC) 100 % of control

CC(=O)OC1CC[N+](C)(Cc2ccccc2)C1 (stereo unspecified)
inactive: [11] 107 % of control | [12] 91 % of control

O=C(/C=C/c1ccccc1)NCCC1(O)C(=O)Nc2ccccc21 (stereo unspecified)
inactive: [1] 102 % of control | [2] 100 % of control | [4] 90 % of control | [13] 88 % of control

COC(=O)c1ccc(Nc2cn[nH]n2)cc1
inactive: [2] 101 % of control | [4] 100 % of control | [13] 98 % of control

CC1(C)N=C(N)N=C(N)N1c1ccc(OCCNC(=O)Nc2ccc(S(=O)(=O)F)cc2)c(Cl)c1
inactive: dose: 50.0 mg/kg/injection, schedule: Q04DX003 (ip), vehicle: saline 120 % of control
